In paper PMC3523701 (Journal of the American Chemical Society, 2012):

System: SRC
Format: binding
Details: competitor against photo-probe labeling, Figure S1

Row | SMILES | competition of active site labeling of SRC
1 | Cc1ccc(C(=O)Nc2ccc(CN3CCN(C)CC3)c(C(F)(F)F)c2)cc1C#Cc1cnc2cccnn12 [Ponatinib, reference compound] | able to block active site labeling
2 | CNC(=O)c1cc(Oc2ccc(NC(=O)Nc3cc(C(C)(C)C)nn3-c3ccc4ncccc4c3)c(F)c2)ccn1 [Rebastinib, reference compound] | able to block active site labeling
